One compound from PMC5218480 (PLoS ONE, 2017) can be followed below.

For this test, the system named is MV-4-11 cells. The test is described as follows: Gene expression microarray analysis (Affymetrix PrimeView) and GSEA. In kind it is cell-based, human. Set-up: RFU PODN (11730768_x_at) / Fold change /veh PODN (11730768_x_at) / RFU LINC00158 (11744669_a_at) / Fold change /veh LINC00158 (11744669_a_at) / RFU DUSP10 (11751237_a_at) / Fold change /veh DUSP10 (11751237_a_at) / RFU ID3 (11757404_x_at) / Fold change /veh ID3 (11757404_x_at) / RFU PLEKHG5 (11737974_s_at) / Fold change /veh PLEKHG5 (11737974_s_at) / RFU LRRC4B (11730491_at) / Fold change /veh LRRC4B (11730491_at) / RFU GIMAP4 (11747438_a_at) / Fold change /veh GIMAP4 (11747438_a_at) / RFU KRT8 (11758183_x_at) / Fold change /veh KRT8 (11758183_x_at) / RFU CNN1 (11734310_a_at) / Fold change /veh CNN1 (11734310_a_at) / RFU VPS37D (11726825_at) / Fold change /veh VPS37D (11726825_at) / RFU C10orf10 (11716522_x_at) / Fold change /veh C10orf10 (11716522_x_at) / RFU KIR2DL2 /// KIR2DL4 /// KIR2DL5A /// KIR2DL5B /// KIR2DS1 /// KIR2DS2 /// KIR2DS3 /// KIR2DS4 /// KIR3DL3 /// KIR3DL3 /// KIR3DS1 (11738374_at) / Fold change /veh KIR2DL2 /// KIR2DL4 /// KIR2DL5A /// KIR2DL5B /// KIR2DS1 /// KIR2DS2 /// KIR2DS3 /// KIR2DS4 /// KIR3DL3 /// KIR3DL3 /// KIR3DS1 (11738374_at) / RFU C1QL1 (11718748_at) / Fold change /veh C1QL1 (11718748_at) / RFU TMPRSS4 (11747572_a_at) / Fold change /veh TMPRSS4 (11747572_a_at) / RFU HAMP (11756126_x_at) / Fold change /veh HAMP (11756126_x_at) / RFU RNFT2 (11725882_a_at) / Fold change /veh RNFT2 (11725882_a_at) / RFU NR4A2 (11747474_a_at) / Fold change /veh NR4A2 (11747474_a_at) / RFU ABCC12 (11746883_a_at) / Fold change /veh ABCC12 (11746883_a_at) / RFU TMEM136 (11760407_x_at) / Fold change /veh TMEM136 (11760407_x_at) / RFU CLDN22 /// WWC2 (11732394_at) / Fold change /veh CLDN22 /// WWC2 (11732394_at) / RFU HLA-DPB1 (11760878_x_at) / Fold change /veh HLA-DPB1 (11760878_x_at) / RFU SPINT1 (11716480_a_at) / Fold change /veh SPINT1 (11716480_a_at) / RFU GAP43 (11754022_s_at) / Fold change /veh GAP43 (11754022_s_at) / RFU A4GNT (11735810_at) / Fold change /veh A4GNT (11735810_at) / RFU PRB3 (11715151_x_at) / Fold change /veh PRB3 (11715151_x_at) / RFU TUBB4B (11761932_at) / Fold change /veh TUBB4B (11761932_at) / RFU CAPN14 (11732068_a_at) / Fold change /veh CAPN14 (11732068_a_at) / RFU TMCC2 (11721928_a_at) / Fold change /veh TMCC2 (11721928_a_at) / RFU IRGQ (11745062_a_at) / Fold change /veh IRGQ (11745062_a_at) / RFU FAM174B (11720279_a_at) / Fold change /veh FAM174B (11720279_a_at) / RFU TMPRSS4 (11748680_a_at) / Fold change /veh TMPRSS4 (11748680_a_at) / RFU FAM212B (11763350_a_at) / Fold change /veh FAM212B (11763350_a_at) / RFU PLEKHG5 (11743358_a_at) / Fold change /veh PLEKHG5 (11743358_a_at) / RFU ZSCAN30 (11745921_a_at) / Fold change /veh ZSCAN30 (11745921_a_at) / RFU CMKLR1 (11741424_a_at) / Fold change /veh CMKLR1 (11741424_a_at) / RFU LOC101060620 /// MAPK8IP1 (11723275_at) / Fold change /veh LOC101060620 /// MAPK8IP1 (11723275_at) / RFU SPTSSB (11747773_x_at) / Fold change /veh SPTSSB (11747773_x_at) / RFU PRSS12 (11739890_at) / Fold change /veh PRSS12 (11739890_at) / RFU BIN1 (11741810_x_at) / Fold change /veh BIN1 (11741810_x_at) / RFU WNT11 (11732464_a_at) / Fold change /veh WNT11 (11732464_a_at) / RFU C10orf10 (11716521_a_at) / Fold change /veh C10orf10 (11716521_a_at) / RFU C5orf56 (11738089_at) / Fold change /veh C5orf56 (11738089_at) / RFU CYB561 (11721691_x_at) / Fold change /veh CYB561 (11721691_x_at) / RFU ANKRD19P (11752326_a_at) / Fold change /veh ANKRD19P (11752326_a_at) / RFU OR2T12 /// OR2T33 /// OR2T8 (11738714_s_at) / Fold change /veh OR2T12 /// OR2T33 /// OR2T8 (11738714_s_at) / RFU VCAN (11748164_a_at) / Fold change /veh VCAN (11748164_a_at) / RFU JSRP1 (11732532_at) / Fold change /veh JSRP1 (11732532_at) / RFU KRTAP10-11 (11738290_x_at) / Fold change /veh KRTAP10-11 (11738290_x_at) / RFU MYO3A (11730013_a_at) / Fold change /veh MYO3A (11730013_a_at) / RFU EBF3 (11725865_a_at) / Fold change /veh EBF3 (11725865_a_at) / RFU CAMK2N1 (11719241_x_at) / Fold change /veh CAMK2N1 (11719241_x_at) / RFU C5orf56 (11738088_a_at) / Fold change /veh C5orf56 (11738088_a_at) / RFU OLFML3 (11715873_a_at) / Fold change /veh OLFML3 (11715873_a_at) / RFU LOC100653217 /// NTM (11731650_a_at) / Fold change /veh LOC100653217 /// NTM (11731650_a_at) / RFU MAPK11 (11762145_a_at) / Fold change /veh MAPK11 (11762145_a_at) / RFU FIZ1 (11724087_x_at) / Fold change /veh FIZ1 (11724087_x_at) / RFU OASL (11726364_x_at) / Fold change /veh OASL (11726364_x_at) / RFU SOX15 (11748057_x_at) / Fold change /veh SOX15 (11748057_x_at) / RFU CD79A (11719716_a_at) / Fold change /veh CD79A (11719716_a_at) / RFU HIST1H1D (11736915_at) / Fold change /veh HIST1H1D (11736915_at) / RFU CASKIN2 (11723855_a_at) / Fold change /veh CASKIN2 (11723855_a_at) / RFU LOC730098 (11760151_x_at) / Fold change /veh LOC730098 (11760151_x_at) / RFU OR4N2 (11742367_at) / Fold change /veh OR4N2 (11742367_at) / RFU PRRT2 (11749266_a_at) / Fold change /veh PRRT2 (11749266_a_at) / RFU SNX32 (11753110_a_at) / Fold change /veh SNX32 (11753110_a_at) / RFU CDHR5 (11726645_a_at) / Fold change /veh CDHR5 (11726645_a_at) / RFU RCAN1 (11760418_a_at) / Fold change /veh RCAN1 (11760418_a_at) / RFU FAM167A (11723789_a_at) / Fold change /veh FAM167A (11723789_a_at) / RFU FAM26E (11764081_at) / Fold change /veh FAM26E (11764081_at) / RFU ISYNA1 (11749810_s_at) / Fold change /veh ISYNA1 (11749810_s_at) / RFU ACY1 (11761880_at) / Fold change /veh ACY1 (11761880_at) / RFU 11764098_at / Fold change /veh 11764098_at / RFU SAMD14 (11745864_x_at) / Fold change /veh SAMD14 (11745864_x_at) / RFU NPB (11741838_a_at) / Fold change /veh NPB (11741838_a_at) / RFU TMPRSS6 (11731388_a_at) / Fold change /veh TMPRSS6 (11731388_a_at) / RFU KRTAP10-2 (11738614_at) / Fold change /veh KRTAP10-2 (11738614_at) / RFU ARHGAP8 /// PRR5-ARHGAP8 (11727945_x_at) / Fold change /veh ARHGAP8 /// PRR5-ARHGAP8 (11727945_x_at) / RFU KRTAP5-7 /// NADSYN1 (11734609_at) / Fold change /veh KRTAP5-7 /// NADSYN1 (11734609_at) / RFU RASL12 (11751679_a_at) / Fold change /veh RASL12 (11751679_a_at) / RFU CDKN2B (11736163_a_at) / Fold change /veh CDKN2B (11736163_a_at) / RFU PRF1 (11729649_at) / Fold change /veh PRF1 (11729649_at) / RFU, ZNF638 /// ZNF638-IT1 / Fold change vs veh, ZNF638 /// ZNF638-IT1 / RFU, PANK3 / Fold change vs veh, PANK3 / RFU, SH3YL1 / Fold change vs veh, SH3YL1 / RFU, ZEB2 / Fold change vs veh, ZEB2 / RFU, NRIP1 / Fold change vs veh, NRIP1 / RFU, PTTG1IP / Fold change vs veh, PTTG1IP / RFU, CAPN2 / Fold change vs veh, CAPN2 / RFU, MED14 / Fold change vs veh, MED14 / RFU, SNORA58 / Fold change vs veh, SNORA58 / RFU, C1orf63 / Fold change vs veh, C1orf63 / RFU, LRRFIP1 / Fold change vs veh, LRRFIP1 / RFU, NDUFAF7 / Fold change vs veh, NDUFAF7 / RFU, SLC12A2 / Fold change vs veh, SLC12A2 / RFU, IBTK / Fold change vs veh, IBTK / RFU, ESF1 / Fold change vs veh, ESF1 / Fold change vs veh, TMEM50B / RFU, TAOK1 / Fold change vs veh, TAOK1 / RFU, ACBD3 / Fold change vs veh, ACBD3 / RFU, TMA16 / Fold change vs veh, TMA16 / RFU, RWDD3 / Fold change vs veh, RWDD3 / RFU, BCAT1 / Fold change vs veh, BCAT1 / RFU, EDEM3 / Fold change vs veh, EDEM3 / RFU, TMEM33 / Fold change vs veh, TMEM33 / RFU, WDR75 / Fold change vs veh, WDR75 / RFU, AHCTF1 / Fold change vs veh, AHCTF1 / RFU, TFRC / Fold change vs veh, TFRC / RFU, ZDHHC17 / Fold change vs veh, ZDHHC17 / RFU, NOM1 / Fold change vs veh, NOM1 / RFU, ARL8B / Fold change vs veh, ARL8B / RFU, ZBTB11 / Fold change vs veh, ZBTB11 / RFU, TAMM41 / Fold change vs veh, TAMM41 / RFU, KIAA1704 /// LOC100996395 / Fold change vs veh, KIAA1704 /// LOC100996395 / RFU, ING1 / Fold change vs veh, ING1 / RFU, TRMT61B / Fold change vs veh, TRMT61B / RFU, FUBP3 / Fold change vs veh, FUBP3 / RFU, TP53 / Fold change vs veh, TP53 / RFU, TNKS2 / Fold change vs veh, TNKS2 / RFU, ZFP14 / Fold change vs veh, ZFP14 / RFU, ACTR2 / Fold change vs veh, ACTR2 / RFU, PPP3R1 / Fold change vs veh, PPP3R1 / RFU, PIK3R1 / Fold change vs veh, PIK3R1 / RFU, HNRNPA1 / Fold change vs veh, HNRNPA1 / RFU, RNF170 / Fold change vs veh, RNF170 / RFU, ZNF28 / Fold change vs veh, ZNF28 / RFU, RNGTT / Fold change vs veh, RNGTT / RFU, OGT / Fold change vs veh, OGT / RFU, BRD1 / Fold change vs veh, BRD1 / RFU, MARS / Fold change vs veh, MARS / RFU, ZNF655 / Fold change vs veh, ZNF655 / RFU, FAHD1 / Fold change vs veh, FAHD1 / RFU, BDP1 / Fold change vs veh, BDP1 / RFU, LRRCC1 / Fold change vs veh, LRRCC1 / RFU, ARID1A / Fold change vs veh, ARID1A / RFU, ZNF146 / Fold change vs veh, ZNF146 / RFU, ZNF330 / Fold change vs veh, ZNF330 / RFU, GPN3 / Fold change vs veh, GPN3 / RFU, C9orf123 / Fold change vs veh, C9orf123 / RFU, N4BP2L2 / Fold change vs veh, N4BP2L2 / RFU, ARFIP1 / Fold change vs veh, ARFIP1 / RFU, FAM179B / Fold change vs veh, FAM179B / RFU, BCL10 / Fold change vs veh, BCL10 / RFU, UHRF1BP1L / Fold change vs veh, UHRF1BP1L / RFU, BET1 / Fold change vs veh, BET1 / RFU, CNOT2 / Fold change vs veh, CNOT2 / RFU, ZNF268 / Fold change vs veh, ZNF268 / Fold change vs veh, ZNF507 / RFU, DGCR2 / Fold change vs veh, DGCR2 / RFU, WDSUB1 / Fold change vs veh, WDSUB1 / Fold change vs veh, HSP90B1 /// MIR3652 / RFU, ADSS / Fold change vs veh, ADSS / RFU, GK / Fold change vs veh, GK / RFU, ZNF148 / Fold change vs veh, ZNF148 / RFU, TAF9 / Fold change vs veh, TAF9 / RFU, SLC1A5 / Fold change vs veh, SLC1A5 / RFU, SLMO2 / Fold change vs veh, SLMO2 / RFU, ABCC4 / Fold change vs veh, ABCC4 / RFU, LOC101060439 /// RAP1B / Fold change vs veh, LOC101060439 /// RAP1B / RFU, RFX7 / Fold change vs veh, RFX7 / RFU, GTPBP10 / Fold change vs veh, GTPBP10 / RFU, CNEP1R1 / Fold change vs veh, CNEP1R1 / RFU, BIVM-ERCC5 /// ERCC5 / Fold change vs veh, BIVM-ERCC5 /// ERCC5 / RFU, ILF3 / Fold change vs veh, ILF3 / RFU 11762660_at / Fold change /veh 11762660_at / RFU VCAN (11757783_s_at) / Fold change /veh VCAN (11757783_s_at) / RFU DDX43 (11728927_at) / Fold change /veh DDX43 (11728927_at) / RFU KRT8 (11758188_x_at) / Fold change /veh KRT8 (11758188_x_at) / RFU NKD1 (11759106_at) / Fold change /veh NKD1 (11759106_at) / RFU SRD5A1 (11742802_a_at) / Fold change /veh SRD5A1 (11742802_a_at) / RFU TPSAB1 /// TPSB2 (11721975_s_at) / Fold change /veh TPSAB1 /// TPSB2 (11721975_s_at) / RFU GSTM3 (11746129_a_at) / Fold change /veh GSTM3 (11746129_a_at) / RFU IL23R (11737362_x_at) / Fold change /veh IL23R (11737362_x_at) / RFU TMEM51 (11727254_a_at) / Fold change /veh TMEM51 (11727254_a_at) / RFU PIWIL2 (11732686_x_at) / Fold change /veh PIWIL2 (11732686_x_at) / RFU ORM1 (11744905_x_at) / Fold change /veh ORM1 (11744905_x_at) / RFU CCDC152 (11743942_at) / Fold change /veh CCDC152 (11743942_at) / RFU ECM1 (11717891_a_at) / Fold change /veh ECM1 (11717891_a_at) / RFU IL23R (11748794_a_at) / Fold change /veh IL23R (11748794_a_at) / RFU TNFAIP8L3 (11732012_x_at) / Fold change /veh TNFAIP8L3 (11732012_x_at) / RFU MBOAT4 (11741988_at) / Fold change /veh MBOAT4 (11741988_at) / RFU 11764193_at / Fold change /veh 11764193_at / RFU TMEM53 (11763286_at) / Fold change /veh TMEM53 (11763286_at) / RFU MAGEB2 (11727129_at) / Fold change /veh MAGEB2 (11727129_at) / RFU TMEM200A (11744735_a_at) / Fold change /veh TMEM200A (11744735_a_at) / RFU CCDC152 (11751479_a_at) / Fold change /veh CCDC152 (11751479_a_at) / RFU FAM211A (11726209_a_at) / Fold change /veh FAM211A (11726209_a_at) / RFU RGS16 (11746705_a_at) / Fold change /veh RGS16 (11746705_a_at) / RFU VCAN (11755009_s_at) / Fold change /veh VCAN (11755009_s_at) / RFU RHOB (11743442_s_at) / Fold change /veh RHOB (11743442_s_at) / RFU RGS16 (11720943_a_at) / Fold change /veh RGS16 (11720943_a_at) / RFU RGS16 (11720944_at) / Fold change /veh RGS16 (11720944_at) / RFU, VPS4B / Fold change vs veh, VPS4B / RFU, CREB1 / Fold change vs veh, CREB1 / RFU, DNAJC13 / Fold change vs veh, DNAJC13 / RFU, GNAQ / Fold change vs veh, GNAQ / RFU, CDK5R1 / Fold change vs veh, CDK5R1 / RFU, ZRANB3 / Fold change vs veh, ZRANB3 / RFU, CUL4A / Fold change vs veh, CUL4A / RFU, CCNY / Fold change vs veh, CCNY / RFU, UFL1 / Fold change vs veh, UFL1 / RFU, COG3 / Fold change vs veh, COG3 / RFU, DIAPH2 / Fold change vs veh, DIAPH2 / RFU, SKA2 / Fold change vs veh, SKA2 / RFU, AFF3 / Fold change vs veh, AFF3 / RFU, LMF1 / Fold change vs veh, LMF1 / RFU, IPO11 / Fold change vs veh, IPO11 / RFU, DFFB / Fold change vs veh, DFFB / RFU, FOXP1 / Fold change vs veh, FOXP1 / RFU, CARD8 / Fold change vs veh, CARD8 / RFU, STRN3 / Fold change vs veh, STRN3 / RFU, ADK / Fold change vs veh, ADK / RFU, RASSF2 / Fold change vs veh, RASSF2 / RFU, WIPF1 / Fold change vs veh, WIPF1 / RFU, LARP1B / Fold change vs veh, LARP1B / RFU, RASA1 / Fold change vs veh, RASA1 / RFU, RB1 / Fold change vs veh, RB1 / RFU, PPFIA1 / Fold change vs veh, PPFIA1 / RFU, MAT2A / Fold change vs veh, MAT2A / RFU, CCT5 / Fold change vs veh, CCT5 / RFU, WDR92 / Fold change vs veh, WDR92 / RFU, CUX1 / Fold change vs veh, CUX1 / RFU, TTC7A / Fold change vs veh, TTC7A / RFU, TMEM135 / Fold change vs veh, TMEM135 / RFU, DEPTOR / Fold change vs veh, DEPTOR / RFU, CPM / Fold change vs veh, CPM / RFU, DNAJB6 / Fold change vs veh, DNAJB6 / RFU, CACNA2D3 / Fold change vs veh, CACNA2D3 / RFU, DTX4 / Fold change vs veh, DTX4 / RFU, TFCP2 / Fold change vs veh, TFCP2 / RFU, GMCL1 /// GMCL1P1 / Fold change vs veh, GMCL1 /// GMCL1P1 / RFU, AEBP2 / Fold change vs veh, AEBP2 / RFU, SNHG1 /// SNORD22 /// SNORD25 /// SNORD26 /// SNORD27 /// SNORD28 /// SNORD29 /// SNORD31 / Fold change vs veh, SNHG1 /// SNORD22 /// SNORD25 /// SNORD26 /// SNORD27 /// SNORD28 /// SNORD29 /// SNORD31 / Fold change (Aza/veh), C12orf56 (ProbeSet 11735607_a_at) / Fold change (ACY-1035/veh), C12orf56 (ProbeSet 11735607_a_at) / Fold change (Aza/veh), FGFR1OP (ProbeSet 11751329_s_at) / Fold change (ACY-1035/veh), FGFR1OP (ProbeSet 11751329_s_at) / Fold change (Aza/veh), VPS36 (ProbeSet 11739960_a_at) / Fold change (ACY-1035/veh), VPS36 (ProbeSet 11739960_a_at) / RFU SYPL1 (11715823_x_at) / Fold change /veh SYPL1 (11715823_x_at) / RFU IGFBP7 (11715501_s_at) / Fold change /veh IGFBP7 (11715501_s_at) / RFU REEP3 (11722064_at) / Fold change /veh REEP3 (11722064_at) / RFU IGLL1 (11728026_x_at) / Fold change /veh IGLL1 (11728026_x_at): dose or concentration left out as unconfirmed. The conditions noted are these: ProbeSet 11720269_a_at; LIST B.

Consider `Nc1ncn([C@@H]2O[C@H](CO)[C@@H](O)[C@H]2O)c(=O)n1` [azacitidine], for which the “RFU, IBTK” value was determined as 763.53 RFU.
